From US12643867B2, “Compositions and uses thereof” (University of Virginia Patent Foundation, priority 2017, dated 2026)

Columns and labels:
[1] = molecular target: T1, recombinant RAF1 (Homo sapiens, UniProt P04049); test: RAF1 (CRAF) substrate assay; assay type: biochemical; settings: RAF1-HEK293T proteomes
T1 construct: expressed in transfected cells; host or cells: HEK293T
Protocol: Given the potential for indirect inhibitory effects in the competition studies in lysates, ritanserin activity was tested in a CRAF substrate assay. Ritanserin inhibition was measured against recombinant RAF1 using commercial substrate assays. […] RAF1 was overexpressed in HEK293T cells and measured recombinant RAF1 activity by comparing with non-transfected HEK293T (i.e. mock) proteomes.

[2] = molecular target: T2, PLK1 (Serine/threonine-protein kinase PLK1) (Homo sapiens, UniProt P53350); test: SILAC LC-MS ATP acyl phosphate probe competition, native kinases in HEK293T; assay type: binding; settings: site Lys1; ATP 1 mM; Ketanserin, Ritanserin 100 μM; RF001 1 mM
T2 construct: Native kinases; endogenous in cells; host or cells: HEK293T soluble proteome
Protocol: Proteomes were diluted to 2 mg/ml in kinase buffer. The light and heavy proteomes (0.5 mg, 250 μL total reaction volume) were pre-treated with vehicle or compound, respectively (5 μL, DMSO (light) or 50× stock in DMSO (heavy)), mixed gently, and incubated at 25° C. for 30 min. […] After incubation, matched light and heavy proteomes were transferred and mixed in a 1:1 ratio in a two-dram vial containing 4:1:3 MeOH/CHCl3/H2O (2 mL MeOH, 500 AL CHCl3, 1.5 mL H2O) for extraction of proteins to remove excess probe, quickly vortexed, and centrifuged at 1,400×g for 3 min to pellet protein. Organic and aqueous layers were removed using a Pasteur pipette, and the protein pellet was transferred to a screw-top tube in 600 μL MeOH. A second extraction was performed by adding CHCl3 (150 μL) and H2O (600 μL) to each sample, vortexed, and centrifuged at 1,400×g for 3 min to pellet protein. Organic and aqueous layers were removed by pipetting. MeOH added to pellet (600 μL) and pellets were re-suspended by sonication (3×1 sec pulse, 20% amplitude) for a final extraction. Samples were then centrifuged at 17,000×g for 5 min to pellet protein and MeOH was removed by pipetting. […] To desalt the samples, each was transferred to a two-dram glass vial, and to the vial 4:1:2 MeOH/CHCl3/H2O (2 mL MeOH, 500 AL CHCl3, 1 mL H2O) was added. The vials were vortexed quickly, spun at 1.400×g for 3 min to pellet protein, and aqueous and organic layers were removed using a Pasteur pipette. The resulting protein pellet was transferred to a screw-top tube in 600 μL MeOH, and then CHCl3 (150 μL) and HO (600 μL) were added to extract protein a second time. The samples were vortexed quickly, centrifuged at 1,400×g to pellet protein, and the aqueous and organic layers were removed by pipetting. Resulting protein pellet was suspended in MeOH (600 μL) via sonication (3×1 sec pulse, 20% amplitude), centrifuged at 17,000×g for 5 min to pellet protein, and MeOH removed by pipetting. […]

[3] = test system: H1650 cells; test: CaspaseGlo 3/7 assay; assay type: cell-based; settings: 24 hours
Protocol: (§1) Caspase Glo Assays. Assays were performed as directed by the manufacturer (Promega). Briefly, tumor cells were plated in black tissue-culture treated transparent-bottom 96 well plates at a density of 200,000 cells/mL (A549, H1650) or 400,000 cells/mL (H82) in a volume of 50 μL/well. Cells were treated with inhibitors at the indicated concentrations (final DMSO concentration of 0.5%) for 24 hrs at 37° C. under 5% CO2. Afterwards, 50 μL of the prepared CaspaseGlo reagent was added to each well. The reaction was allowed to proceed at 37° C. under 5% CO2 for 1 hr, at which point the cells were shaken in an orbital shaker at 500 rpm for 60 s and then luminescence was read for each well. Data were normalized to DMSO-treated wells and significance values determined with one-way ANOVA.

[4] = test system: A549 cells; test: CaspaseGlo 3/7 assay; assay type: cell-based; settings: 24 hours
Protocol: as §1

[5] = test system: H82 cells; test: CaspaseGlo 3/7 assay; assay type: cell-based; settings: 24 hours
Protocol: as §1

[6] = molecular target: Alpha (DGK alpha; only in reference sheet cells) (Rattus norvegicus, UniProt P51556); test: DGK isoform % Activity screen; assay type: biochemical; settings: for activity at 100 µM: read-out: 100 uM % Activity (section without isoform head; Alpha)
[7] = test system: H1650 cells; test: WST-1 Cell Proliferation Assay; assay type: cell-based; settings: for cell viability (WST-1), words: ritanserin, ketanserin 5-50 μM, staurosporine 1 μM
Protocol: (§2) WST-1 Cell Proliferation Assays. Tumor cells were plated in transparent tissue-culture treated 96-well plates at a density of 100,000 cells/mL (A549, H1650) or 200,000 cells/mL (H82) in a volume of 100 μL per well. Cells were treated with dimethyl sulfoxide (DMSO) vehicle or inhibitors dissolved in DMSO at the indicated concentrations (final DMSO concentration of 0.5%). Cells were allowed to grow for indicated times at 37° C. under 5% CO2. Afterwards, equal parts of WST-1 developer reagent and electron mediator solution were mixed and 10 μL of the resulting solution (‘WST-1 reagent’) were added to each well. Plates were shaken in an orbital shaker for 60 s and then returned to the incubator for two hrs. Plates were again shaken followed measurement of absorbance at 450 nm. Data were normalized to DMSO-treated wells and significance values determined with one-way ANOVA.

[8] = test system: A549 cells; test: WST-1 Cell Proliferation Assay; assay type: cell-based; settings: for cell viability (WST-1), words: ritanserin, ketanserin 5-50 μM, staurosporine 1 μM
Protocol: as §2

[9] = test system: H82 cells; test: WST-1 Cell Proliferation Assay; assay type: cell-based; settings: for cell viability (WST-1), words: ritanserin, ketanserin 5-50 μM, staurosporine 1 μM
Protocol: as §2

Chain of Alpha (DGK alpha; only in reference sheet cells) (P51556 whole entry, canonical isoform): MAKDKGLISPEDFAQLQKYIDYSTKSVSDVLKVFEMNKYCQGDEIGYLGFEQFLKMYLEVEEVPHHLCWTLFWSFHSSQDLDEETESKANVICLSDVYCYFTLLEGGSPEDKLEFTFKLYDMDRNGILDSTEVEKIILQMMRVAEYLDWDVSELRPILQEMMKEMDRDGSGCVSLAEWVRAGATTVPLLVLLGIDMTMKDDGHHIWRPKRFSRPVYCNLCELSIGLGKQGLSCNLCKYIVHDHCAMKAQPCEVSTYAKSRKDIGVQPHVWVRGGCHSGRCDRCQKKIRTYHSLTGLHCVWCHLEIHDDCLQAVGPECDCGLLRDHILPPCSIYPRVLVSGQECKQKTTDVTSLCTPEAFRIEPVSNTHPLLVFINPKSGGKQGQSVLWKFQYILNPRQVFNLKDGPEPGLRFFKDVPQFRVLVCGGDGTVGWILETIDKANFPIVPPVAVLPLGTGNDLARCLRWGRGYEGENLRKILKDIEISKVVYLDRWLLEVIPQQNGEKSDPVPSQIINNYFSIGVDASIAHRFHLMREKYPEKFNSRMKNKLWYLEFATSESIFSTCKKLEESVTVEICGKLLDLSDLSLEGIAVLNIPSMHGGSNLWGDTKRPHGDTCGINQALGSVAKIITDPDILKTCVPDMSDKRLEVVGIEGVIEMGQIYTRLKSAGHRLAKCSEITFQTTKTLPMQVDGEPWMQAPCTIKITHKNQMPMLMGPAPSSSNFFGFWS
T2 sequence (P53350 whole entry): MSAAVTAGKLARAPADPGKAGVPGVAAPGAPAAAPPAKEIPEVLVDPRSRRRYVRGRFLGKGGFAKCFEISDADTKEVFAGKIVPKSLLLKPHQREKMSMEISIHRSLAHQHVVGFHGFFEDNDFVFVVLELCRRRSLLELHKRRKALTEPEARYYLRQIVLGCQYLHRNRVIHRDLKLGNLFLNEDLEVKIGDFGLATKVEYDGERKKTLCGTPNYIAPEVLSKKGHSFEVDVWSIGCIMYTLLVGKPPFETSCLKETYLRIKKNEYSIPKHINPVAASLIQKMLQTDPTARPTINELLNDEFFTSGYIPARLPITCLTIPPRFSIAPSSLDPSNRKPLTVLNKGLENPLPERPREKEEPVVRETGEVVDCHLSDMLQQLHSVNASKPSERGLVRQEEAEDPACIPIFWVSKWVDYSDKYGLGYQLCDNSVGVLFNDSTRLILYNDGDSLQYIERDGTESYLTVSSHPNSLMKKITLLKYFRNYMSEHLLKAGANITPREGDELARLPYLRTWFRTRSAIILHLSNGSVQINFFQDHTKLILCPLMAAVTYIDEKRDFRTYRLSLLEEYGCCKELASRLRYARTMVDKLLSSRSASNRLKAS
T1 sequence (P04049 whole entry): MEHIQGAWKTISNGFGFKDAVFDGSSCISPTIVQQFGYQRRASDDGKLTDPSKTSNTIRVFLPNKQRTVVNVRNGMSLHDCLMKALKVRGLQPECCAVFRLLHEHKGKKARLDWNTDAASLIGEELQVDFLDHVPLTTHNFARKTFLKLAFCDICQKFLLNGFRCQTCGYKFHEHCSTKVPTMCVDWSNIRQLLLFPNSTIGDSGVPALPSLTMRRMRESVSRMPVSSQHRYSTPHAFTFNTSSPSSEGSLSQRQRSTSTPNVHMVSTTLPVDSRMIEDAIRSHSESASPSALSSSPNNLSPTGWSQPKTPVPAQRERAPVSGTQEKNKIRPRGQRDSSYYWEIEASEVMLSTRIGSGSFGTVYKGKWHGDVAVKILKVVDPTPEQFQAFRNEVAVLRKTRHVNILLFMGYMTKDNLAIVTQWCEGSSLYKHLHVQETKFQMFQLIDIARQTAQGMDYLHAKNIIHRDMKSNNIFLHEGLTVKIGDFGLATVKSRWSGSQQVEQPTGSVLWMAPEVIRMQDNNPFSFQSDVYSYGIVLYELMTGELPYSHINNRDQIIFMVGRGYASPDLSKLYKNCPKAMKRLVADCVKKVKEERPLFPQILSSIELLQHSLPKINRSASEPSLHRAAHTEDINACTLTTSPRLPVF

| Structure (SMILES) | blockade of recombinant RAF1 activity [1] | SILAC ratio, PLK1 probe-modified peptide [2] | caspase 3/7 activity [3] | caspase 3/7 activity [4] | caspase 3/7 activity [5] | activity at 100 µM [6] [%] | cell viability (WST-1), words [7] | cell viability (WST-1), words [8] | cell viability (WST-1), words [9] | activity at 1000 µM ([6]; read-out: 1 mM % Activity (section without isoform head; Alpha)) [%] | cell death (WST-1) ([7]; 5 μM, two days) | cell death after 1 day (WST-1) ([7]; 25 μM, 1 day) [%] | inhibition at 25 µM ([7]; Homo sapiens, NCI-H1650, 48 h, 25 μM, two days, read-out: inhibition of cell growth (WST-1)) [%] | cell death (WST-1) ([8]; 5 μM, two days) | cell death after 1 day (WST-1) ([8]; 25 μM, 1 day) [%] | inhibition at 25 µM ([8]; Homo sapiens, A549, 48 h, 25 μM, two days, read-out: inhibition of cell growth (WST-1)) [%] | cell death (WST-1) ([9]; 5 μM, two days) [%] | cell death after 1 day (WST-1) ([9]; 25 μM, 1 day) [%] | inhibition at 25 µM ([9]; Homo sapiens, NCI-H82, 48 h, 25 μM, two days, read-out: inhibition of cell growth (WST-1)) [%] |
| --- | --- | --- | --- | --- | --- | --- | --- | --- | --- | --- | --- | --- | --- | --- | --- | --- | --- | --- | --- |
| O=C(c1ccc(F)cc1)C1CCN(CCn2c(=O)[nH]c3ccccc3c2=O)CC1 [Ketanserin] | not ketanserin | 1.0 | did not induce these effects | did not induce these effects | did not induce these effects | 99 | lack of activity | lack of activity | lack of activity |  |  |  |  |  |  |  |  |  |  |
| Fc1ccc(C(=C2CCNCC2)c2ccc(F)cc2)cc1 [RF001, 4-(Bis(4-fluorophenyl)methylene) piperidine] |  | 0.9 |  |  |  | 75 |  |  |  | 0 |  |  |  |  |  |  |  |  |  |
| Cc1nc2sccn2c(=O)c1CCN1CCC(=C(c2ccc(F)cc2)c2ccc(F)cc2)CC1 [Ritanserin] | concentrations dependent blockade of recombinant RAF1 activity | 1.5 | comparable activation of caspase 3/7 compared with staurosporine | lower degree of activation | comparable activation of caspase 3/7 compared with staurosporine | 52 | Concentration-dependent decreases in viability | Concentration-dependent decreases in viability | Concentration-dependent decreases in viability |  | 5-15% | > 50 | > 70 | 5-15% | > 50 | > 70 | ~50 | > 50 | > 70 |
